Source: patent publication US11447481B2, “Microbiocidal oxadiazole derivatives” (SYNGENTA PARTICIPATIONS AG, priority 2017, dated 2022)

Columns and labels:
[1] = system: Glomerella lagenarium (Colletotrichum lagenarium); test: Fungicidal activity against Glomerella lagenarium (Colletotrichum lagenarium) liquid culture / cucumber / preventative (anthracnose); assay type: cell-based; conditions: Colletotrichum orbiculare, liquid culture (PDB), growth inhibition measured photometrically 3-4 days after application, compared to untreated control
Description: Mycelia fragments or conidia suspensions of a fungus prepared either freshly from liquid cultures of the fungus or from cryogenic storage, are directly mixed into nutrient broth. DMSO solutions of the test compound (max. 10 mg/ml) are diluted with 0.025% Tween20 by a factor of 50 and 10 µl of this solution is pipetted into a microtiter plate (96-well format). The nutrient broth containing the fungal spores/mycelia fragments is then added to give an end concentration of the tested compound. The test plates are incubated in the dark at 24° C. and 96% relative humidity. The inhibition of fungal growth is determined photometrically after 2 to 7 days, depending on the pathosystem, and percent antifungal activity relative to the untreated check is calculated.
Conidia of the fungus from cryogenic storage are directly mixed into nutrient broth (PDB potato dextrose broth). After placing a (DMSO) solution of test compound into a microtiter plate (96-well format), the nutrient broth containing the fungal spores is added. The test plates are incubated at 24° C. and the inhibition of growth is measured photometrically 3-4 days after application.

[2] = system: Phakopsora pachyrhizi; test: Fungicidal activity against Phakopsora pachyrhizi / soybean / leaf disc preventative (Asian soybean rust); assay type: in vivo; conditions: foliar, soybean leaf disks, compared to untreated control
Description: (§1) Leaf disks or leaf segments of various plant species are cut from plants grown in a greenhouse. The cut leaf disks or segments are placed in multiwell plates (24-well format) onto water agar. The leaf disks are sprayed with a test solution before (preventative) or after (curative) inoculation. Compounds to be tested are prepared as DMSO solutions (max. 10 mg/ml) which are diluted to the appropriate concentration with 0.025% Tween20 just before spraying. The inoculated leaf disks or segments are incubated under defined conditions (temperature, relative humidity, light, etc.) according to the respective test system. A single evaluation of disease level is carried out 3 to 14 days after inoculation, depending on the pathosystem. Percent disease control relative to the untreated check leaf disks or segments is then calculated.
Soybean leaf disks are placed on water agar in multiwell plates (24-well format) and sprayed with the formulated test compound diluted in water. One day after application leaf discs are inoculated by spraying a spore suspension on the lower leaf surface. After an incubation period in a climate cabinet of 24-36 hours in darkness at 20° C. and 75% rh leaf disc are kept at 20° C. with 12 h light/day and 75% rh. The activity of a compound is assessed as percent disease control compared to untreated when an appropriate level of disease damage appears in untreated check leaf disks (12-14 days after application).

[3] = system: Puccinia recondita f. sp. tritici; test: Fungicidal activity against Puccinia recondita f. sp. tritici / wheat / leaf disc preventative (brown rust); assay type: in vivo; conditions: foliar, wheat leaf segments, preventative (inoculated 1 day after application), compared to untreated control
Description: as §1
(§2) Wheat leaf segments cv. Kanzler are placed on agar in multiwell plates (24-well format) and sprayed with the formulated test compound diluted in water. The leaf disks are inoculated with a spore suspension of the fungus 1 day after application. The inoculated leaf segments are incubated at 19° C. and 75% rh under a light regime of 12 h light/12 h darkness in a climate cabinet and the activity of a compound is assessed as percent disease control compared to untreated when an appropriate level of disease damage appears in untreated check leaf segments (7-9 days after application).

[4] = system: Puccinia recondita f. sp. tritici; test: Fungicidal activity against Puccinia recondita f. sp. tritici / wheat / leaf disc curative (brown rust); assay type: in vivo; conditions: foliar, 24 h, wheat leaf segments, curative (applied 1 day after inoculation), compared to untreated control
Description: as §1
as §2, with “format).” for “format) and sprayed with the formulated test compound diluted in water.”, “segments” for “disks”, “fungus. Plates are stored in darkness at 19° C. and 75% rh. The formulated test compound diluted in water is applied” for “fungus”, “inoculation.” for “application.”, “The” for “The inoculated”, “(6-8” for “(7-9”

| melting point | SMILES | inhibition of growth at 20 ppm [1] | pest or weed control at 200 ppm [2] | pest or weed control at 200 ppm [3] | pest or weed control at 200 ppm [4] |
| --- | --- | --- | --- | --- | --- |
|  | CC(c1ccc(-c2noc(C(F)(F)F)n2)cc1)n1nnn(C)c1=O (centres unmarked) [Compound B-1, 1-methyl-4-[1-[4-[5-(trifluoromethyl)-1,2,4-oxadiazol-3-yl]phenyl]ethyl]tetrazol-5-one] | ≥ 80% | ≥ 80% | ≥ 80% | ≥ 80% |
|  | Cn1nnn(Cc2ccc(-c3noc(C(F)(F)F)n3)c(F)c2)c1=O [Compound B-5, 1-[[3-fluoro-4-[5-(trifluoromethyl)-1,2,4-oxadiazol-3-yl]phenyl]methyl]-4-methyl-tetrazol-5-one] | ≥ 80% | ≥ 80% | ≥ 80% | ≥ 80% |
|  | O=S1(=O)C=CCN1Cc1ccc(-c2noc(C(F)(F)F)n2)cc1 [Compound A-1, 2-[[4-[5-(trifluoromethyl)-1,2,4-oxadiazol-3-yl]phenyl]methyl]-3H-isothiazole 1,1-dioxide] | ≥ 80% | ≥ 80% | ≥ 80% | ≥ 80% |
| 117 to 120 °C | Cc1ccn(C(C)c2ccc(-c3noc(C(F)(F)F)n3)cc2)c(=O)c1 (centres unmarked) [Compound C-1] | ≥ 80% | ≥ 80% | ≥ 80% | ≥ 80% |
| 125 to 126 °C | O=c1ccc(F)cn1Cc1ccc(-c2noc(C(F)(F)F)n2)cc1 [Compound C-6, 5-fluoro-1-[[4-[5-(trifluoromethyl)-1,2,4-oxadiazol-3-yl]phenyl]methyl]pyridin-2-one] | ≥ 80% | ≥ 80% | ≥ 80% | ≥ 80% |
| 129 to 130.8 °C | COc1nn(Cc2ccc(-c3noc(C(F)(F)F)n3)cc2)c(=O)n1C [Compound B-4, 5-methoxy-4-methyl-2-[[4-[5-(trifluoromethyl)-1,2,4-oxadiazol-3-yl]phenyl]methyl]-1,2,4-triazol-3-one] | ≥ 80% | ≥ 80% | ≥ 80% | ≥ 80% |
|  | Cc1cccc(=O)n1Cc1cc(F)c(-c2noc(C(F)(F)F)n2)c(F)c1 [Compound C-17, 1-[[3,5-difluoro-4-[5-(trifluoromethyl)-1,2,4-oxadiazol-3-yl]phenyl]methyl]-6-methyl-pyridin-2-one] | ≥ 80% |  | ≥ 80% | ≥ 80% |
| 139.5 to 140 °C | O=C1OCC(c2ccc(Cl)cc2Cl)=NN1Cc1ccc(-c2noc(C(F)(F)F)n2)cc1 [Compound E-1, 5-(2,4-dichlorophenyl)-3-[[4-[5-(trifluoromethyl)-1,2,4-oxadiazol-3-yl]phenyl]methyl]-6H-1,3,4-oxadiazin-2-one] |  |  |  |  |
| 131 to 133 °C | O=c1ccc(C(F)(F)F)cn1Cc1ccc(-c2noc(C(F)(F)F)n2)cc1 [Compound C-9, 5-(trifluoromethyl)-1-[[4-[5-(trifluoromethyl)-1,2,4-oxadiazol-3-yl]phenyl]methyl]pyridin-2-one] | ≥ 80% | ≥ 80% | ≥ 80% | ≥ 80% |
|  | O=c1ccn(-c2ccc(Cl)cc2)n1Cc1ccc(-c2noc(C(F)(F)F)n2)cc1 [Compound A-4, 1-(4-chlorophenyl)-2-[[4-[5-(trifluoromethyl)-1,2,4-oxadiazol-3-yl]phenyl]methyl]pyrazol-3-one] |  | ≥ 80% | ≥ 80% |  |
| 115 to 117 °C | Cc1cccn(Cc2ccc(-c3noc(C(F)(F)F)n3)cc2)c1=O [Compound C-8, 3-methyl-1-[[4-[5-(trifluoromethyl)-1,2,4-oxadiazol-3-yl]phenyl]methyl]pyridin-2-one] | ≥ 80% | ≥ 80% | ≥ 80% | ≥ 80% |
|  | COc1c(-c2c(C)cc(C)cc2C)c(=O)n(Cc2ccc(-c3noc(C(F)(F)F)n3)cc2)n1C [Compound A-3, 5-methoxy-1-methyl-2-[[4-[5-(trifluoromethyl)-1,2,4-oxadiazol-3-yl]phenyl]methyl]-4-(2,4,6-trimethylphenyl)pyrazol-3-one] | ≥ 80% | ≥ 80% |  |  |
| 154 to 156 °C | O=c1ccccn1Cc1ccc(-c2noc(C(F)(F)F)n2)c(F)c1F [Compound C-12, 1-[[2,3-difluoro-4-[5-(trifluoromethyl)-1,2,4-oxadiazol-3-yl]phenyl]methyl]pyridin-2-one] | ≥ 80% | ≥ 80% | ≥ 80% | ≥ 80% |
|  | Cc1cc(C)n(Cc2ccc(-c3noc(C(F)(F)F)n3)cc2)c(=O)c1 [Compound C-3, 4,6-dimethyl-1-[[4-[5-(trifluoromethyl)-1,2,4-oxadiazol-3-yl]phenyl]methyl]pyridin-2-one] |  |  |  | ≥ 80% |
|  | Cc1cccc(=O)n1C(C)c1ccc(-c2noc(C(F)(F)F)n2)cc1 (centres unmarked) [Compound C-16, 6-methyl-1-[1-[4-[5-(trifluoromethyl)-1,2,4-oxadiazol-3-yl]phenyl]ethyl]pyridin-2-one] | ≥ 80% |  | ≥ 80% | ≥ 80% |
| 146 to 148 °C | Cc1ccn(CCc2ccc(-c3noc(C(F)(F)F)n3)cc2)c(=O)c1 [Compound C-18, 4-methyl-1-[2-[4-[5-(trifluoromethyl)-1,2,4-oxadiazol-3-yl]phenyl]ethyl]pyridin-2-one] | ≥ 80% |  | ≥ 80% | ≥ 80% |
|  | Cc1cccc(=O)n1Cc1cc(F)c(-c2noc(C(F)(F)F)n2)cc1F [Compound C-15, 1-[[2,5-difiuoro-4-[5-(trifluoromethyl)-1,2,4-oxadiazol-3-yl]phenyl]methyl]-6-methyl-pyridin-2-one] | ≥ 80% | ≥ 80% | ≥ 80% | ≥ 80% |
| 161 to 167 °C | Cn1nc(Cl)n(-c2ccc(-c3noc(C(F)(F)F)n3)cc2)c1=O [Compound F-1, 5-chloro-2-methyl-4-[4-[5-(trifluoromethyl)-1,2,4-oxadiazol-3-yl]phenyl]-1,2,4-triazol-3-one] | ≥ 80% |  | ≥ 80% |  |
| 111.1 to 114 °C | O=c1sc(-c2ccccc2)nn1Cc1ccc(-c2noc(C(F)(F)F)n2)cc1 [Compound B-2, 5-phenyl-3-[[4-[5-(trifluoromethyl)-1,2,4-oxadiazol-3-yl]phenyl]methyl]-1,3,4-thiadiazol-2-one] | ≥ 80% |  |  |  |
|  | CC1=CC(C)C(=O)N1Cc1ccc(-c2noc(C(F)(F)F)n2)cc1 (centres unmarked) [Compound B-7, 3,5-dimethyl-1-[[4-[5-(trifluoromethyl)-1,2,4-oxadiazol-3-yl]phenyl]methyl]-3H-pyrrol-2-one] | ≥ 80% | ≥ 80% | ≥ 80% |  |
|  | CC(=O)n1ccc(=O)n1Cc1ccc(-c2noc(C(F)(F)F)n2)cc1 [Compound A-2, 1-acetyl-2-[[4-[5-(trifluoromethyl)-1,2,4-oxadiazol-3-yl]phenyl]methyl]pyrazol-3-one] | ≥ 80% | ≥ 80% | ≥ 80% | ≥ 80% |
